Test results taken from paper PMC5513743 (Journal of medical virology, 2017).
Where two headings read alike, the source gives them in different places.

Legend:
[1] = test system: HCV replicon cell line AVA5 (sub-genomic (CON1), genotype 1b); assay: microbe, parasite or virus in culture; conditions: Hepatitis C virus, GETYPE1B, Ava5, read-out: EC50 (μM) (individual agent)
patient derived HCV = assay: microbe, parasite or virus in culture; type: cell-based, hepatitis C virus; conditions: for IC50: Hepatitis C virus, in Homo sapiens
[2] = test system: HCV replicon H/FL-Neo (genotype 1a (H77), full length construct); conditions: HCV genotype 1A replicon
[3] = test system: HCV replicon cell line AVA5 (sub-genomic (CON1), genotype 1b)
replicon cell line AVA5 = conditions: Table 2; SB 9200 monotherapy
[4] = test system: fused THP-1/Huh7 derivative cells; conditions: capture fusion assay, data not shown
HCV = conditions: SAD and MAD seven-day Phase I study, chronic HCV patients; ref Thompson AJ, 2015; cited from earlier work
in vitro [5] = assay: in vitro
in vitro [6] = conditions: human

Question: Which EC50 [1] does the source give for `NC(=O)c1ncn([C@@H]2O[C@H](CO)[C@@H](O)[C@H]2O)n1` [Ribavirin] here?
Answer: The EC50 was over 30 µM.

Question: For `CO[C@@H]1[C@H](OP(=O)(OC[C@H]2O[C@@H](n3cnc4c(N)ncnc43)C[C@@H]2O)SCOC(=O)OC(C)C)[C@@H](CO)O[C@H]1n1ccc(=O)[nH]c1=O` (stereo partly shown) [SB 9200], which “inhibition of HCV replication” value (patient derived HCV; Genotypes 1,2,3,4, and 6 patient derived HCV) is on record?
Answer: The value was “inhibited replication of all the genotypes tested in a dose-dependent manner”.

Question: What about the IC50 (patient derived HCV; G1 strains, patient derived HCV) of the same molecule?
Answer: Its IC50 is 220 ± 76 nM.

Question: And the IC50 (patient derived HCV; G3 isolates, patient derived HCV)?
Answer: The IC50 was 35 ± 13 nM.

Question: What about the “difference in activity (IC50) against pre- and post treatment quasi-species” value (patient derived HCV; g3 patient who failed SOF/DAC/RBV, NS5A RAS S62L and Y93H enriched) of the same molecule?
Answer: The value was “No significant difference”.

Question: What about the “antiviral activity (fold change in HCV RNA from non-treated controls)” value (patient derived HCV; single dose 0.1μM, G3 SVR and NR samples after DAA treatment) of the same molecule?
Answer: The value was “demonstrated antiviral activity”.

Question: What about the “S.I. (CC50/EC50)” value [2] of the same molecule?
Answer: Its value is over 45.

Question: What about the “S.I. (CC50/EC50)” value ([3]; HCV genotype 1B replicon) of the same molecule?
Answer: Its value is over 100.

Question: What about the “S.I. (CC50/EC50)” value ([3]; Table 2, SB 9200 monotherapy) of the same molecule?
Answer: The value was over 100.

Question: What about the CC50 (replicon cell line AVA5) of the same molecule?
Answer: The CC50 was over 100000 nM.

Question: And the Cell viability [4]?
Answer: The Cell viability was “not affected”.

Question: What about the safety and tolerability (HCV) of the same molecule?
Answer: The safety and tolerability was “safe, well tolerated”.

Question: What about the CC50 (in vitro [5]) of the same molecule?
Answer: Its CC50 is over 100000 nM.

Question: And the CC50 (in vitro [6])?
Answer: Its CC50 is over 100000 nM.

Question: Which IC50 (patient derived HCV; G1 patient derived samples) does the source give for `C/C=C/C[C@@H](C)[C@@H](O)[C@H]1C(=O)N[C@@H](CC)C(=O)N(C)[C@H](C)C(=O)N(CC)[C@@H](C(C)C)C(=O)N[C@@H](C(C)C)C(=O)N(C)[C@@H](CC(C)C)C(=O)N[C@@H](C)C(=O)N[C@H](C)C(=O)N(C)[C@@H](CC(C)C)C(=O)N(C)[C@@H](CC(C)C)C(=O)N(C)[C@@H](C(C)C)C(=O)N1C` [alisporivir, reference compound] here?
Answer: The IC50 was 99 nM.

Question: And the IC50 (patient derived HCV; G3 patient derived samples)?
Answer: Its IC50 is 36 nM.
